Reference: the supplement of paper PMC10307832

Assays:
Experiment in all cases: relative viability (nuclei count vs DMSO), 5 days (fraction); higher = more cells survive
Metformin + Tozasertib = compound: CN(C)C(=N)NC(=N)N [Metformin] + Cc1cc(Nc2cc(N3CCN(C)CC3)nc(Sc3ccc(NC(=O)C4CC4)cc3)n2)n[nH]1 [Tozasertib] (partner 0.1 µM)
How it was run: (§1)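 The day after seeding in 1536-well plates, lung cancer cell lines were treated by pin tool with a single drug, or with a fixed anchor-drug dose together with five library-drug doses (not always all listed) in √10 steps. After 5 days, a combined fix-and-stain solution (final 0.05% Triton X-100, 1% formaldehyde, 1 ug/ml Hoechst) was added. Nuclei counted on 4× images gave relative viability as treated counts over vehicle counts, reported as the median of duplicate plates.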

Metformin + Phenformin = compound: CN(C)C(=N)NC(=N)N [Metformin] + N=C(N)NC(=N)NCCc1ccccc1 [Phenformin] (partner 250 µM)
How it was run: as §1

Apatinib + Bortezomib = compound: N#CC1(c2ccc(NC(=O)c3cccnc3NCc3ccncc3)cc2)CCCC1 [Apatinib] + CC(C)C[C@H](NC(=O)[C@H](Cc1ccccc1)NC(=O)c1cnccn1)B(O)O [Bortezomib] (partner 0.002 µM)
How it was run: as §1

Apatinib + Lapatinib = compound: N#CC1(c2ccc(NC(=O)c3cccnc3NCc3ccncc3)cc2)CCCC1 [Apatinib] + CS(=O)(=O)CCNCc1ccc(-c2ccc3ncnc(Nc4ccc(OCc5cccc(F)c5)c(Cl)c4)c3c2)o1 [Lapatinib] (partner 2 µM)
How it was run: as §1

| Cell Line | relative viability (Metformin + Tozasertib; first compound 10 µM) | relative viability (Metformin + Tozasertib; first compound 31.62 µM) | relative viability (Metformin + Tozasertib; first compound 100 µM) | relative viability (Metformin + Tozasertib; first compound 316.23 µM) | relative viability (Metformin + Tozasertib; first compound 1000 µM) | relative viability (Metformin + Phenformin; first compound 10 µM) | relative viability (Metformin + Phenformin; first compound 31.62 µM) | relative viability (Metformin + Phenformin; first compound 100 µM) | relative viability (Metformin + Phenformin; first compound 316.23 µM) | relative viability (Metformin + Phenformin; first compound 1000 µM) | relative viability (Apatinib + Bortezomib; first compound 0.08 µM) | relative viability (Apatinib + Bortezomib; first compound 0.253 µM) | relative viability (Apatinib + Bortezomib; first compound 0.8 µM) | relative viability (Apatinib + Bortezomib; first compound 2.53 µM) | relative viability (Apatinib + Bortezomib; first compound 8 µM) | relative viability (Apatinib + Lapatinib; first compound 0.08 µM) | relative viability (Apatinib + Lapatinib; first compound 0.253 µM) | relative viability (Apatinib + Lapatinib; first compound 0.8 µM) | relative viability (Apatinib + Lapatinib; first compound 2.53 µM) | relative viability (Apatinib + Lapatinib; first compound 8 µM) |
| --- | --- | --- | --- | --- | --- | --- | --- | --- | --- | --- | --- | --- | --- | --- | --- | --- | --- | --- | --- | --- |
| NCI-H1734 | 0.246 | 0.242 | 0.267 | 0.268 | 0.29 | 0.431 | 0.447 | 0.405 | 0.367 | 0.379 | 0.98 | 1.11 | 0.947 | 0.764 | 0.759 | 1.14 | 1.13 | 1.06 | 0.871 | 0.909 |
| NCI-H2405 | 0.701 | 0.732 | 0.801 | 0.763 | 0.716 | 0.379 | 0.362 | 0.362 | 0.393 | 0.326 | 0.891 | 0.99 | 0.961 | 0.954 | 0.961 | 0.959 | 1.3 | 1.1 | 0.975 | 0.992 |
| NCI-H727 | 0.564 | 0.821 | 0.606 | 0.501 | 0.637 | 0.321 | 0.707 | 0.585 |  | 0.573 | 0.684 | 0.706 | 0.62 | 0.599 | 0.716 | 0.707 | 0.879 | 0.9 | 0.727 | 0.825 |
| NCI-H2009 | 0.761 | 0.856 | 0.802 | 0.759 | 0.783 | 0.504 | 0.499 | 0.565 | 0.412 | 0.425 | 1.09 | 0.955 | 0.954 | 0.714 | 0.574 | 0.993 | 0.893 | 0.863 | 0.795 | 0.538 |
| NCI-H1666 | 0.625 | 0.649 | 0.703 | 0.711 | 0.725 |  | 0.575 | 0.569 | 0.499 | 0.58 | 0.829 | 1.02 | 0.824 | 0.785 | 0.825 | 0.631 | 0.726 | 0.736 | 0.759 | 0.682 |
| UMC-11 | 0.211 | 0.188 | 0.202 | 0.2 | 0.209 | 0.322 | 0.317 | 0.321 | 0.312 | 0.351 | 1.01 | 0.728 | 0.722 | 0.623 | 0.67 | 1.15 | 0.917 | 0.83 | 0.972 | 0.901 |
| NCI-H1755 | 0.446 | 0.519 | 0.474 | 0.509 | 0.497 | 0.543 | 0.626 | 0.639 | 0.613 | 0.632 | 1.02 | 0.959 | 0.94 | 0.945 | 0.925 | 1.03 | 1 | 1.04 | 1.08 | 0.722 |
| 201T |  | 0.93 | 1.04 | 0.857 | 0.92 |  | 0.426 | 0.47 | 0.435 | 0.414 | 1.07 | 1.07 | 1.1 | 1.11 | 1.08 | 1.07 | 0.976 | 0.983 | 0.975 | 1.01 |
| NCI-H838 | 0.28 | 0.296 | 0.349 | 0.312 | 0.258 | 0.709 | 0.671 | 0.661 | 0.667 | 0.749 | 0.931 | 0.963 | 0.57 | 0.887 | 0.712 | 1.29 | 1.13 | 0.998 | 0.965 | 0.891 |
| HOP-62 | 0.283 | 0.373 | 0.316 | 0.285 | 0.289 | 0.486 | 0.577 | 0.527 | 0.478 | 0.593 | 1.06 |  | 0.62 | 0.672 | 0.738 | 0.994 |  | 0.945 | 0.955 | 0.929 |
| LC-2-ad |  | 0.412 | 0.524 | 0.469 | 0.506 |  | 0.636 | 0.486 | 0.539 | 0.592 | 0.937 | 1.15 | 1.22 | 0.946 | 0.832 | 0.925 | 0.998 | 0.947 | 0.9 | 0.71 |
| LCLC-97TM1 | 0.18 | 0.212 | 0.212 | 0.241 | 0.231 | 0.478 | 0.43 | 0.332 | 0.398 | 0.477 | 0.774 | 0.775 | 0.508 | 0.344 | 0.574 | 0.845 | 0.818 | 0.586 | 0.604 | 0.475 |
| NCI-H1993 | 0.622 | 0.551 | 0.609 | 0.571 | 0.596 | 0.479 | 0.481 | 0.514 | 0.532 | 0.499 | 1.2 | 1.11 | 0.781 | 1 | 1.07 | 0.824 | 0.749 | 0.805 | 0.866 | 0.798 |
| NCI-H520 | 0.462 | 0.496 | 0.463 | 0.498 | 0.469 | 1.08 | 0.892 | 0.603 | 0.658 | 0.78 | 0.83 | 0.492 | 0.451 | 0.585 | 0.447 | 0.981 | 1.12 | 0.856 | 0.767 | 0.659 |
| NCI-H1650 | 0.433 | 0.443 | 0.496 | 0.442 | 0.364 | 0.7 | 0.548 | 0.593 | 0.458 | 0.476 | 0.19 | 0.219 | 0.198 | 0.184 | 0.188 | 0.626 | 0.796 | 0.908 | 0.756 | 0.689 |
| NCI-H2085 | 0.85 | 0.746 | 0.896 | 0.773 | 0.841 | 0.693 | 0.729 | 0.722 | 0.673 | 0.864 | 1.1 | 0.831 | 1.06 | 1.13 | 1.04 | 0.726 | 0.683 | 0.873 | 0.619 | 0.768 |
| PC-3 [JPC-3] | 0.772 | 0.811 | 0.853 | 0.779 | 0.825 | 0.437 | 0.46 | 0.462 | 0.45 | 0.478 | 0.832 | 0.773 | 0.713 | 0.716 | 0.813 | 0.472 | 0.441 | 0.444 | 0.394 | 0.43 |
| CAL-12T | 0.437 | 0.388 | 0.408 | 0.363 | 0.35 | 0.635 | 0.61 | 0.634 | 0.555 | 0.604 | 1.11 | 0.908 | 1.06 | 0.819 | 1.09 | 0.736 | 0.608 | 0.778 | 0.575 | 0.589 |
